IC50 data for 41 compounds are collected here from patent US20240287124A1, “PRODRUGS OF 4'-SUBSTITUTED NUCLEOSIDE REVERSE TRANSCRIPTASE INHIBITORS” (Merck Sharp & Dohme LLC, priority 2023, published 2024).

Structures are written as SMILES.

For this experiment, the system named is HIV-1 wild-type (R8) virus. The experiment in a line: Viral KINetics in Green cells (VIKING) assay, HIV-1 replication in MT4-GFP reporter cells. The note with it: Human immunodeficiency virus 1, 10% normal human serum, MT4-GFP cells, HIV-1 wild-type (R8); read-out: Viking (10% NHS), IC50. The format is cell-based. As for the experimental part: Antiviral potency of the compounds was determined based on their ability to block HIV-1 replication in a GFP reporter cell line; this assay is referred to as Viral KINetics in Green cells or VIKING assay. HIV-1 replication was monitored using MT4-gag-GFP clone D3 (hereafter designate MT4-GFP) cells, which are MT4 cells modified to harbor a GFP reporter gene, the expression of which is dependent on the HIV-1 proteins tat and rev. (MT4 is a human T-cell line that is particularly sensitive to HIV-1 replication.) HIV-1 infection of MT4-GFP cells results in GFP expression approximately 24 h post-infection. MT4-GFP cells were maintained at 37° C./5% CO2/90% relative humidity in RPMI 1640 supplemented with 10% fetal bovine serum, 100 U/mL penicillin/streptomycin, and […] G418 to maintain the reporter gene. For infections, MT4-GFP cells were placed in the same medium lacking G418 and infected overnight with HIV-1 wild-type (R8) virus at an approximate multiplicity of infection of 0.01 in the same incubation conditions. Cells were then washed and resuspended in RPMI 1640 containing 10% normal human serum at 2×10^5 cells/mL. Compound plates were prepared by dispensing compounds dissolved in DMSO into wells of 384-well poly D lysine-coated plates (0.2 μl/well) using an ECHO acoustic dispenser. Each compound was tested in a 10-point serial 3-fold dilution (typical final concentrations: 4 μM-0.2 nM). Controls included no inhibitor (DMSO only) and a combination of three antiviral agents as a positive control (efavirenz, indinavir, and an integrase strand transfer inhibitor at final concentrations of 4 μM each). Infected cells were added (50 μL/well) to compound plates and were maintained at 37° C./5% CO2/90% relative humidity. Infected cells were quantified at two time points, approximately 48 h and 72 h post-infection, by counting the number of green cells in each well using an Acumen eX3 scanner. The increase in the number of green cells over ˜24 h period gives the reproductive ratio, R, which is calculated by dividing the number of green cells at 72 h over those at 48 h post-infection. The percent inhibition caused by a test compound is calculated using the following formula: […]
The dose-response curves of each test compound were plotted as % inhibition versus the compound concentration. IC50 values were determined by non-linear 4-parameter fitting of the dose-response curves.
As usually defined, the IC50 is the concentration at which inhibition is half-maximal. Turning to `C#C[C@]1(CO)O[C@@H](n2ccc3c(NC(=O)OCCCCCCCCCCCCCC)nc(Cl)nc32)C[C@@H]1O` [Example 63, Tetradecyl (2-chloro-7-((2R,4S,5R)-5-ethynyl-4-hydroxy-5-(hydroxymethyl)tetrahydrofuran-2-yl)-7H-pyrrolo[2,3-d]pyrimidin-4-yl)carbamate], the IC50 was 1490 nM.

Turning to `C#C[C@]1(CO)O[C@@H](n2ccc3c(NC(=O)CCCCCCC)nc(Cl)nc32)C[C@@H]1O` [Example 66, N-(2-chloro-7-((2R,4S,5R)-5-ethynyl-4-hydroxy-5-(hydroxymethyl)tetrahydrofuran-2-yl)-7H-pyrrolo[2,3-d]pyrimidin-4-yl)octanamide], the IC50 is 197 nM.

Take `C#C[C@]1(CO)O[C@@H](n2ccc3c(N)nc(Cl)nc32)C[C@@H]1OC(=O)OCc1cccn(C)c1=O` [Example 67, (2R,3S,5R)-5-(4-amino-2-chloro-7H-pyrrolo[2,3-d]pyrimidin-7-yl)-2-ethynyl-2-(hydroxymethyl)tetrahydrofuran-3-yl ((1-methyl-2-oxo-1,2-dihydropyridin-3-yl)methyl) carbonate]: the IC50 was determined as 6.4 nM.

`C#C[C@]1(CO)O[C@@H](n2ccc3c(NC(=O)CCC45CC6CC(CC(C6)C4)C5)nc(Cl)nc32)C[C@@H]1O` [Example 69, 3-(adamantan-1-yl)-N-(2-chloro-7-((2R,4S,5R)-5-ethynyl-4-hydroxy-5-(hydroxymethyl)tetrahydrofuran-2-yl)-7H-pyrrolo[2,3-d]pyrimidin-4-yl)propanamide]: the IC50 is 10 nM.

With `C#C[C@]1(CO)O[C@@H](n2ccc3c(NC(=O)CCCCCCCCCCCCC)nc(Cl)nc32)C[C@@H]1O` [Example 70, N-(2-chloro-7-((2R,4S,5R)-5-ethynyl-4-hydroxy-5-(hydroxymethyl)tetrahydrofuran-2-yl)-7H-pyrrolo[2,3-d]pyrimidin-4-yl)tetradecanamide], the IC50 stood at 58 nM.

Regarding `C#C[C@]1(CO)O[C@@H](n2ccc3c(NC(=O)OCCCCCCCCCC)nc(Cl)nc32)C[C@@H]1O` [Example 71, Decyl(2-chloro-7-((2R,4S,5R)-5-ethynyl-4-hydroxy-5-(hydroxymethyl)tetrahydrofuran-2-yl)-7H-pyrrolo[2,3-d]pyrimidin-4-yl)carbamate], the IC50 was determined as 785 nM.

For the compound `C#C[C@]1(CO)O[C@@H](n2ccc3c(NC(=O)OCc4ccccc4)nc(Cl)nc32)C[C@@H]1O` [Example 72, benzyl (2-chloro-7-((2R,4S,5R)-5-ethynyl-4-hydroxy-5-(hydroxymethyl)tetrahydrofuran-2-yl)-7H-pyrrolo[2,3-d]pyrimidin-4-yl)carbamate], the IC50 was determined as 544 nM.

For the compound `C#C[C@]1(CO)O[C@@H](n2ccc3c(N)nc(Cl)nc32)C[C@@H]1OC(=O)CCCCCCCCCCCCCCC` [Example 83], the IC50 was 25 nM.

For the compound `C#C[C@]1(COC(=O)OCc2cccnc2)O[C@@H](n2ccc3c(N)nc(Cl)nc32)C[C@@H]1OC(=O)OCc1ccccc1` [Example 85], the IC50 is 3.2 nM.

With `C#C[C@]1(COC(=O)CCCCCCCCCCCCCCCCCCC)O[C@@H](n2ccc3c(N)nc(Cl)nc32)C[C@@H]1O` [Example 91], the IC50 came out at 135 nM.

`C#C[C@]1(COC(=O)OCCCCCCCCCC)O[C@@H](n2ccc3c(N)nc(Cl)nc32)C[C@@H]1OC(=O)OCCCCCCCCCC` [Example 92]: the IC50 came out at 3510 nM.

On to `C#C[C@]1(COC(=O)OCc2cccn(C)c2=O)O[C@@H](n2ccc3c(N)nc(Cl)nc32)C[C@@H]1OC(=O)OCc1ccccc1` [Example 93], for which the IC50 worked out at 7.8 nM.

With `C#C[C@]1(COC(=O)OCc2ccc[nH]c2=O)O[C@@H](n2ccc3c(N)nc(Cl)nc32)C[C@@H]1OC(=O)OCc1ccccc1` [Example 94], the IC50 was 6.1 nM.

In the case of `C#C[C@]1(COC(=O)CC23CC(C2)C3)O[C@@H](n2ccc3c(N)nc(Cl)nc32)C[C@@H]1OC(=O)CC12CC(C1)C2` [Example 95], the IC50 was determined as 8.6 nM.

Take `C#C[C@]1(CO)O[C@@H](n2ccc3c(N)nc(Cl)nc32)C[C@@H]1OC(=O)CC12CC(C1)C2` [Example 96]: the IC50 turned out to be 7.1 nM.

In the case of `C#C[C@]1(COC(=O)CC23CC(C2)C3)O[C@@H](n2ccc3c(N)nc(Cl)nc32)C[C@@H]1O` [Example 97], the 50% inhibitory concentration (IC50) stood at 1.6 nM.

For `C#C[C@]1(COC(=O)[C@H](C)c2ccccc2)O[C@@H](n2ccc3c(N)nc(Cl)nc32)C[C@@H]1OC(=O)[C@H](C)c1ccccc1` [Example 98], the IC50 stood at 91 nM.

Turning to `C#C[C@]1(CO)O[C@@H](n2ccc3c(N)nc(Cl)nc32)C[C@@H]1OC(=O)[C@H](C)c1ccccc1` [Example 99], the IC50 was found to be 29 nM.

`C#C[C@]1(CO)O[C@@H](n2ccc3c(N)nc(Cl)nc32)C[C@@H]1OC(=O)[C@@H](C)c1ccccc1` [Example 102]: the IC50 was 43 nM.

On to `C#C[C@]1(COC(=O)[C@@H](C)c2ccccc2)O[C@@H](n2ccc3c(N)nc(Cl)nc32)C[C@@H]1OC(=O)[C@@H](C)c1ccccc1` [Example 103], for which the IC50 was 405 nM.

Regarding `C#C[C@]1(COC(=O)C23CC(C2)C3)O[C@@H](n2ccc3c(N)nc(Cl)nc32)C[C@@H]1OC(=O)C12CC(C1)C2` [Example 104], the IC50 was determined as 4.1 nM.

As for `C#C[C@]1(CO)O[C@@H](n2ccc3c(N)nc(Cl)nc32)C[C@@H]1OC(=O)C12CC(C1)C2` [Example 105], the IC50 came out at 3.5 nM.

For the compound `C#C[C@]1(COC(=O)C23CC(C2)C3)O[C@@H](n2ccc3c(N)nc(Cl)nc32)C[C@@H]1O` [Example 106], the half-maximal inhibitory concentration (IC50) is 2.5 nM.

With `C#C[C@]1(COC(=O)Cc2ccc(Cl)cc2)O[C@@H](n2ccc3c(N)nc(Cl)nc32)C[C@@H]1OC(=O)OCCC12CC3CC(CC(C3)C1)C2` [Example 107], the IC50 is 74 nM.

As for `C#C[C@]1(COC(=O)CC23CC(C2)C3)O[C@@H](n2ccc3c(N)nc(Cl)nc32)C[C@@H]1OC(=O)OCCC12CC3CC(CC(C3)C1)C2` [Example 108], the IC50 worked out at 20 nM.

On to `C#C[C@]1(COC(=O)C23CC(C2)C3)O[C@@H](n2ccc3c(N)nc(Cl)nc32)C[C@@H]1OC(=O)OCCC12CC3CC(CC(C3)C1)C2` [Example 109], for which the IC50 was found to be 21 nM.

`C#C[C@]1(CO)O[C@@H](n2ccc3c(N)nc(Cl)nc32)C[C@@H]1OC(=O)OCC12CC(C1)C2` [Example 110]: the IC50 worked out at 2.7 nM.

As to `C#C[C@]1(CO)O[C@@H](n2ccc3c(N)nc(Cl)nc32)C[C@@H]1OC(=O)OCCC12CC(C1)C2` [Example 111], the IC50 is 5.2 nM.

For the compound `C#C[C@]1(COC(=O)OCCCCCCCC)O[C@@H](n2ccc3c(N)nc(Cl)nc32)C[C@@H]1OC(C)=O` [Example 112], the half-inhibitory concentration (IC50) came out at 28 nM.

For the compound `C#C[C@]1(COC(=O)CCCCCCCC)O[C@@H](n2ccc3c(N)nc(Cl)nc32)C[C@@H]1O` [Example 118], the IC50 came to 4.3 nM.

Take `C#C[C@]1(COC(=O)OCC(C)(C)C)O[C@@H](n2ccc3c(N)nc(Cl)nc32)C[C@@H]1O` [Example 123]: the IC50 was 4.1 nM.

For `C#C[C@]1(COC(=O)O[C@H](C)c2ccccc2)O[C@@H](n2ccc3c(N)nc(Cl)nc32)C[C@@H]1O` [Example 125], the half-inhibitory concentration (IC50) turned out to be 3.7 nM.

As for `C#C[C@]1(COC(=O)O[C@@H](C)c2ccccc2)O[C@@H](n2ccc3c(N)nc(Cl)nc32)C[C@@H]1O` [Example 127], the IC50 was 3.8 nM.

For `C#C[C@]1(COC(=O)OCCCc2ccccc2)O[C@@H](n2ccc3c(N)nc(Cl)nc32)C[C@@H]1O` [Example 128], the IC50 is 3 nM.

`C#C[C@]1(COC(=O)OCc2cc[nH]c(=O)c2)O[C@@H](n2ccc3c(N)nc(Cl)nc32)C[C@@H]1O` [Example 130]: the 50% inhibitory concentration (IC50) was 2.9 nM.

On to `C#C[C@]1(COC(=O)OCc2ccn(C)c(=O)c2)O[C@@H](n2ccc3c(N)nc(Cl)nc32)C[C@@H]1O` [Example 131], for which the IC50 was determined as 3.5 nM.

Take `C#C[C@]1(COC(=O)OCCCCC[C@@H]2SC[C@@H]3NC(=O)N[C@@H]32)O[C@@H](n2ccc3c(N)nc(Cl)nc32)C[C@@H]1O` [Example 132]: the half-maximal inhibitory concentration (IC50) worked out at 3 nM.

As for `C#C[C@]1(COCOC(=O)Oc2ccccc2)O[C@@H](n2ccc3c(N)nc(Cl)nc32)C[C@@H]1O` [Example 135], the IC50 was found to be 3.8 nM.

As for `C#C[C@]1(COCOC(=O)c2ccccc2)O[C@@H](n2ccc3c(N)nc(Cl)nc32)C[C@@H]1OCOC(=O)c1ccccc1` [Example 137], the half-maximal inhibitory concentration (IC50) was determined as 4.5 nM.

For `C#C[C@]1(COCOC(=O)c2ccccc2)O[C@@H](n2ccc3c(N)nc(Cl)nc32)C[C@@H]1OC(=O)c1ccccc1` [Example 138], the half-inhibitory concentration (IC50) came out at 41 nM.

As to `C#C[C@]1(CO)O[C@@H](n2ccc3c(N)nc(Cl)nc32)C[C@@H]1OCOC(=O)c1ccccc1` [Example 139], the IC50 was 3.6 nM.
